Laboratory results: paper PMC9530963, “A cathelicidin antimicrobial peptide from Hydrophis cyanocinctus inhibits Zika virus infection by downregulating expression of a viral entry factor” (The Journal of Biological Chemistry, 2022)

Legend:
Vero, A549 or U251 cells = settings: 1.25, 2.5, and 5 μM, 48 h, 37 °C, CCK-8
Method: Vero, A549 or U251 cells (1×10^4 cells/well) were seeded
in 96-well plates . Series of two -fold peptide dilutions in DMEM were added to each well to
give final concentrations from 0.78125 to 50 μM. After incubation at 37℃ for 48 h, cell
counting assay kit (CCK -8) was applied to determine the cytotoxicity. ***P < 0.001, ns, not

ZIKV [1] = test: Susceptibility of Vero cells to ZIKV (peptide pretreatment of cells); format: cell-based, ZIKV strain PRVABC59; settings: 2.5 μM, Vero cells incubated 2 h with peptide before ZIKV (MOI = 1), 48 h
Method: Figure 2 Hc-CATH decreases the susceptibility of Vero cells to ZIKV.A, schematic diagram of B–G (Hc-CATH-Vero-pre). B–G, pretreatment with Hc-CATH before ZIKV infection decreases the susceptibility of Vero cells to ZIKV. Vero cells were seeded in 24-well plates (5 × 10^4 cells/well) and cultured in DMEM containing 2% FBS. Hc-CATH (2.5 μM), AC5 (2.5 μM), LL-37 (2.5 μM), or same volume of PBS (peptide solvent) was added to cells and incubated at 37 °C for 2 h. Vero cells were washed three times with PBS, and ZIKV (MOI = 1) was added to cells. After incubation at 37 °C for 2 h, Vero cells were washed with PBS and transferred with fresh DMEM containing 2% FBS. After culture for 48 h, intracellular ZIKV RNA (B), NS3 protein (C and D, C: immunoblots, D: ratio analyzed by ImageJ), E protein (E, the scale bar represents 50 μm), and extracellular ZIKV titer (F and G) was tested by qPCR, Western blot, immunofluorescence staining, and plaque-forming assay, respectively.
Vero, A549, or U251 cells were incubated with peptide or PBS at 37 °C for 2 h. The cells were washed three times with PBS and incubated with ZIKV (MOI = 1) at 37 °C for 2 h. The culture media were replaced with fresh DMEM containing 2% FBS. After incubation at 37 °C for 48 h, intracellular ZIKV RNA, NS3 protein, E protein, and extracellular ZIKV titer were detected by qPCR, WB, IF, and plaque-forming assay, respectively ([28]).

ZIKV [2] = test: Antiviral activity of Hc-CATH against ZIKV in vitro (peptide present during and after infection); format: cell-based, ZIKV strain PRVABC59
Method: Figure 1 Hc-CATH inhibits ZIKV infection in vitro. A, schematic diagram of B–H. B–H, protective effect of Hc-CATH on ZIKV infection in vitro. Vero cells were seeded in 24-well plates (5 × 10^4 cells/well). Cells were infected with ZIKV (MOI = 1), and Hc-CATH (1.25, 2.5, and 5 μM), AC5 (2.5 and 5 μM), LL-37 (2.5 μM), or same volume of PBS (peptide solvent) was added and incubated at 37 °C for 2 h. Then the cells were washed with PBS and transferred with fresh DMEM containing 2% FBS and the same concentration of peptides. After culture at 37 °C for 48 h, image of ZIKV-caused cytopathic effect was taken (B, the scale bar represents 200 μm), the percentage of ZIKV-caused cytopathic effect was quantified by CCK-8 (C), intracellular ZIKV RNA (D), NS3 protein (E, upper panel: immunoblots, lower panel: ratios analyzed by ImageJ), E protein (F, the scale bar represents 50 μm), and extracellular ZIKV titer (G and H) was tested by qPCR, Western blot, immunofluorescence staining, and plaque-forming assay, respectively. The raw data files used in the creation of G are presented in Fig. S3. ∗p < 0.05, ∗∗p < 0.01, ∗∗∗p < 0.001, ns, not significant.
Vero cells were seeded in 24-well plates (5 × 10^4 cells/well). After cells were adhered to plates, cells were incubated with ZIKV (multiplicity of infection [MOI] = 1) in the presence of noncytotoxic concentration of Hc-CATH, AC5 (positive control), LL-37 (positive control), or PBS (solvent of peptide). After incubation at 37 °C for 2 h, the culture media were removed, cells were washed with PBS and transferred with fresh culture media containing 2% FBS, and Hc-CATH, AC5, LL-37, or PBS was supplemented to each well. After incubation at 37 °C for 48 h, cytopathic effect was observed by microscopy, and Cell Counting Kit-8 was applied to determine the percent of cytopathic effect. The percent of cytopathic effect was calculated as (Asham –Atreatment)/Asham × 100 (where Asham represents the absorbance of uninfected cells, Atreatment represents the absorbance of PBS- or peptide-treated cells post ZIKV infection). The intracellular ZIKV RNA, NS3 protein, E protein, and extracellular ZIKV titer were tested by qPCR, WB, IF, and plaque-forming assay, respectively ([28]).

KFFKRLLKSVRRAVKKFRKKPRLIGLSTLL [Hc-CATH, cathelicidin antimicrobial peptide identified from the sea snake Hydrophis cyanocinctus]
cytotoxicity against mammalian cells (Vero, A549 or U251 cells): did not have cytotoxicity | reduction of ZIKV NS3 protein, cells pre-incubated with peptide (ZIKV [1]; Western blot): ~50.1% | reduction of ZIKV particles, cells pre-incubated with peptide (ZIKV [1]; plaque-forming assay): ~62.2% | reduction of ZIKV RNA, cells pre-incubated with peptide (ZIKV [1]; qPCR): about 46.1% | reduction of NS3 protein (ZIKV [2]; 5 μM, Vero cells, ZIKV MOI = 1, 48 h, Western blot, ImageJ): ~67.4% | reduction of extracellular ZIKV particles (ZIKV [2]; 5 μM, Vero cells, ZIKV MOI = 1, 48 h, plaque-forming assay): ~71.6% | reduction of intracellular ZIKV RNA (ZIKV [2]; 5 μM, Vero cells, ZIKV MOI = 1, 48 h, qPCR): ~52.7% | reduction of ZIKV-caused cytopathic effect (ZIKV [2]; 5 μM, Vero cells, ZIKV MOI = 1, peptide during 2 h infection and 48 h culture, CCK-8): about 70.3% | anti-ZIKV efficacy in vitro compared with positive peptides (ZIKV [2]; Vero cells (Fig. 1)): weaker than that of AC5 and LL-37
